Test results taken from patent publication US10710978B2, “STK4 inhibitors for treatment of hematologic malignancies” (Dana-Farber Cancer Institute, Inc., priority 2015, dated 2020).
Read-outs that look alike come from different tables or passages of the source.

Columns and labels:
STK24 (MST3) = STK24 (MST3) (Homo sapiens (Human), UniProt Q9Y6E0); assay: Z-lyte biochemical IC50 assay (Invitrogen); settings: ATP concentration matched the Km
Procedure: (§1) STK4 (MST1), STK3 (MST2); STK24 (MST3) and MST4 Assays
(§2) Biochemical IC50s were measured at Invitrogen using Z-lyte technology. Briefly, for STK4, the 2×STK4 (MST1)/Ser/Thr 07 mixture was prepared in 50 mM HEPES pH 7.5, 0.01% BRIJ35, 10 mM MgCl2, 1 mM EGTA. The final 10 μL Kinase Reaction consisted of 6.25-160 ng STK4 (MST1) and 2 μM Ser/Thr 07 in 50 mM HEPES pH 7.5, 0.01% BRIJ-35, 10 mM MgCl2, 1 mM EGTA. After the 1 hour Kinase Reaction incubation, 5 μL of a 1:100000 dilution of Development Reagent A was added. Compounds were screened in a 10 point titration with 3-fold serial dilutions starting at a concentration of 10 μM. The biochemical IC50s against other STK family members were measured similarly. The ATP concentration used matched the Km for each kinase.

STK4 (MST1) = STK4 (MST1) (Homo sapiens (Human), UniProt Q13043); assay: Z-lyte biochemical IC50 assay (Invitrogen); settings: ATP concentration matched the Km
Procedure: as §1, §2

MARK3 = MARK3 (Homo sapiens (Human), UniProt P27448); assay: KiNativ assay; type: binding; settings: H929 live cell
Procedure: (§3) Biochemical IC50s of the compounds of the present disclosure against various kinases were measured in a KiNativ assay. Compounds were screened in duplicate at 10 μM in H929 live cell. IC50 was measured via Mass spectroscopy (MS).

NEK9 = NEK9 (Homo sapiens (Human), UniProt Q8TD19); assay: KiNativ assay; type: binding; settings: H929 live cell
Procedure: as §3

Erk1 = Erk1 (Homo sapiens (Human), UniProt P27361); assay: KiNativ assay; type: binding; settings: H929 live cell
Erk1, sequence (P27361 whole entry): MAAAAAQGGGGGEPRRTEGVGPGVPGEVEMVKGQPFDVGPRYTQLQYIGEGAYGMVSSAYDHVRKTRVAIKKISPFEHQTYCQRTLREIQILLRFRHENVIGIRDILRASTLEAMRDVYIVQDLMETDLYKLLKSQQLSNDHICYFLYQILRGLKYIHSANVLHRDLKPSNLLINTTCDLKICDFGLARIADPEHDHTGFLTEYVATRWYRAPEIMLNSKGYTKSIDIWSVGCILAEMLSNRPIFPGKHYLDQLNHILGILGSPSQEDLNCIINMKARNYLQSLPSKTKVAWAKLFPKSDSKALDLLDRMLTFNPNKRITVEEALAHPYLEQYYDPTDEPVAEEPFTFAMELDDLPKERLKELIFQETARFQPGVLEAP
Procedure: as §3

HPK1 = HPK1 (Homo sapiens (Human), UniProt Q92918); assay: KiNativ assay; type: binding; settings: H929 live cell
HPK1, sequence (Q92918 whole entry): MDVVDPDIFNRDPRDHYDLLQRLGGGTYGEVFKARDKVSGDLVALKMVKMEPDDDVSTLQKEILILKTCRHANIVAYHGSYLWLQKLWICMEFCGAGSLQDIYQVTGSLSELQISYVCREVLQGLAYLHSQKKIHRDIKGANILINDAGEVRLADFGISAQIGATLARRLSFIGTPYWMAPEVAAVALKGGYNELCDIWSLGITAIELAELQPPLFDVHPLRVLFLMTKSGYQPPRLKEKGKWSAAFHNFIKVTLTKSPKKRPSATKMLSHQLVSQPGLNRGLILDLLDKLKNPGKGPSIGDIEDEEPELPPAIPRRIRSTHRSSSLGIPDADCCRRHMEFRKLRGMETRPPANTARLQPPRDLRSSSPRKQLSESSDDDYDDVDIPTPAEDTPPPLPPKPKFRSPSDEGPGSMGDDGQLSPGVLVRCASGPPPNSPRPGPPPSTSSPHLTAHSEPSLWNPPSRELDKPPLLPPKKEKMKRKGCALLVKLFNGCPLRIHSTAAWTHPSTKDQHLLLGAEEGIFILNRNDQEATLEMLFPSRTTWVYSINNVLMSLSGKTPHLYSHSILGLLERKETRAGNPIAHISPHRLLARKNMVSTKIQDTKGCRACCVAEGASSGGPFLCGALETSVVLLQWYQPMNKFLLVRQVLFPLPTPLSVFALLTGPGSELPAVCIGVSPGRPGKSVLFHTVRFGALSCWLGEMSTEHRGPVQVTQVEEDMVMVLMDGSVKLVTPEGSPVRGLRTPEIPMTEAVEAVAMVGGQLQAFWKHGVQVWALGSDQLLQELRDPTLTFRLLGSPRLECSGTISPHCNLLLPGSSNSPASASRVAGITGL
Procedure: as §3

MAP2K3 = MAP2K3 (Homo sapiens (Human), UniProt P46734); assay: KiNativ assay; type: binding; settings: H929 live cell
MAP2K3, sequence (P46734 whole entry): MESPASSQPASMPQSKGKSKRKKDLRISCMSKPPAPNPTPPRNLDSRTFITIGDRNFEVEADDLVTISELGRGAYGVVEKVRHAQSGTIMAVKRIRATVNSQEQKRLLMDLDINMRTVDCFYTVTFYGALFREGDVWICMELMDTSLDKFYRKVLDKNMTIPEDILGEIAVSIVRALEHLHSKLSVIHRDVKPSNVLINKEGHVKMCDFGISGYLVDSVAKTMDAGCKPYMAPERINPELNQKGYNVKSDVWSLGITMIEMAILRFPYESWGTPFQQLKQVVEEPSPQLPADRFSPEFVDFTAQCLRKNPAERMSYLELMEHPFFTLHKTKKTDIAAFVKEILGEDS
Procedure: as §3

ATR = ATR (Homo sapiens (Human), UniProt Q13535); assay: KiNativ assay; type: binding; settings: H929 live cell
ATR, sequence (Q13535 whole entry): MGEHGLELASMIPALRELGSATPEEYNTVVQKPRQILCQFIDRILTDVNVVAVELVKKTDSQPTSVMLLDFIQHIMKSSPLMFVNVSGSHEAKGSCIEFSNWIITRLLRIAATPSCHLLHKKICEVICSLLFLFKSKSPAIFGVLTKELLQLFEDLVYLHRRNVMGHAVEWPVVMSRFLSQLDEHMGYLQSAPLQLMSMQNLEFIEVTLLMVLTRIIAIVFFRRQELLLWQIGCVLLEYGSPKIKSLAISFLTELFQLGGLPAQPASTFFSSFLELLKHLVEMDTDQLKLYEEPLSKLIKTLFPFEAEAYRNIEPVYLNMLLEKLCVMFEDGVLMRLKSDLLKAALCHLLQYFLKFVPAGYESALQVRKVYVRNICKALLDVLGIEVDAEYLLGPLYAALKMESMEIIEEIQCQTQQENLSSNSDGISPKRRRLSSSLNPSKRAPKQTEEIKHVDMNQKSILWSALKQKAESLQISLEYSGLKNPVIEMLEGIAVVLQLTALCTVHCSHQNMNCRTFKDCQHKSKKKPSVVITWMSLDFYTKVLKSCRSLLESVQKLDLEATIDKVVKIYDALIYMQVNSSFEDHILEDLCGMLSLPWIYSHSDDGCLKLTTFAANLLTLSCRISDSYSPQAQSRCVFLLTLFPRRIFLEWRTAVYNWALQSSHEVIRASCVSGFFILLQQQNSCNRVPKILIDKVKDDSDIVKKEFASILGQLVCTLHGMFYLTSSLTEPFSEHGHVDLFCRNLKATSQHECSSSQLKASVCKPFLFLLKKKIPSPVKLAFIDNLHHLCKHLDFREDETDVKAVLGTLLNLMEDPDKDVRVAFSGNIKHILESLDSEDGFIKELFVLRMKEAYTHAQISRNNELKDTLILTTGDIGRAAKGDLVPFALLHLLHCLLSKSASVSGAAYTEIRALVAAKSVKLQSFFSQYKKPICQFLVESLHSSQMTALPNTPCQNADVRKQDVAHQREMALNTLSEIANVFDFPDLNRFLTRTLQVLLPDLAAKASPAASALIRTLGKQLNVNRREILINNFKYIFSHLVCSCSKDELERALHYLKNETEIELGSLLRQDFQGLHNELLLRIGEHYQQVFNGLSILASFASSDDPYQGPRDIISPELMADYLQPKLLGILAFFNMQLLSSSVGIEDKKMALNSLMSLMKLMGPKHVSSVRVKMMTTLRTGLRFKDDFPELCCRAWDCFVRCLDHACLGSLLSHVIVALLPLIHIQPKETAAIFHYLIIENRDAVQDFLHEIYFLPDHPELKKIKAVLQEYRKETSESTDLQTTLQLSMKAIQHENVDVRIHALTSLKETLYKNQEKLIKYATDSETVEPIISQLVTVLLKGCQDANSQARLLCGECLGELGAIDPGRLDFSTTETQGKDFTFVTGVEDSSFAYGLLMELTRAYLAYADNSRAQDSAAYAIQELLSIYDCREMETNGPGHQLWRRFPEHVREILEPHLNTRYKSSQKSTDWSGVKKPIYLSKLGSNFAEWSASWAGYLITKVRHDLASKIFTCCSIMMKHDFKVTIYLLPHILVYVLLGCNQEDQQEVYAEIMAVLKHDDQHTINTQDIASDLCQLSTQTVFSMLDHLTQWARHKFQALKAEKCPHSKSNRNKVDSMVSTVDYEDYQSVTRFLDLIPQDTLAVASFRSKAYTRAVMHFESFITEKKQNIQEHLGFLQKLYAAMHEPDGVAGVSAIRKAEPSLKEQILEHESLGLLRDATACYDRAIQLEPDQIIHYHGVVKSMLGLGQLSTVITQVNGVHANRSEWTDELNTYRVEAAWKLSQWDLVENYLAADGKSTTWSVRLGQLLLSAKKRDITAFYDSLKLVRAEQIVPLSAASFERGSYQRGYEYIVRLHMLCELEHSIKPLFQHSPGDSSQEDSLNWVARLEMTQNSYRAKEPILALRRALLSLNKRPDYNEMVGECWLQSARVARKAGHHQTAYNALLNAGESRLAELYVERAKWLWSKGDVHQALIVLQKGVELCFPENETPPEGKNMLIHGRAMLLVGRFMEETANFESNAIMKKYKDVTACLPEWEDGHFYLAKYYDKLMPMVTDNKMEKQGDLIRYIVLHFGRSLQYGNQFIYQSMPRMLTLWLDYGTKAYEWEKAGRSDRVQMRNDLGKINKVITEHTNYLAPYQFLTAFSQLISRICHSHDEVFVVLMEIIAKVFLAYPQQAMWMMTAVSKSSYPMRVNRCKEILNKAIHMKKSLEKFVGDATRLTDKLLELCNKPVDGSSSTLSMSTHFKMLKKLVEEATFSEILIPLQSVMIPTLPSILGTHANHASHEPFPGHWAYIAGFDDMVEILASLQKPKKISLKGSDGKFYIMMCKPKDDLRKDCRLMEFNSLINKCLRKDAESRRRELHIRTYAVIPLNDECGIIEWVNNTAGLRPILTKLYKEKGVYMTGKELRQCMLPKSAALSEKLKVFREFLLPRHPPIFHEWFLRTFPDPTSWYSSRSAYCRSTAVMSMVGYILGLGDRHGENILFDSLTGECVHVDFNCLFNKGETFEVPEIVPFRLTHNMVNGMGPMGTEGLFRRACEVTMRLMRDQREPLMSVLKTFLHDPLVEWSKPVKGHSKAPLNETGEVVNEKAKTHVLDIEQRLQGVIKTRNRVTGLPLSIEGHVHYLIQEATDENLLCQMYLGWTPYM
ATR, sequence (Q8WXE1 whole entry partner): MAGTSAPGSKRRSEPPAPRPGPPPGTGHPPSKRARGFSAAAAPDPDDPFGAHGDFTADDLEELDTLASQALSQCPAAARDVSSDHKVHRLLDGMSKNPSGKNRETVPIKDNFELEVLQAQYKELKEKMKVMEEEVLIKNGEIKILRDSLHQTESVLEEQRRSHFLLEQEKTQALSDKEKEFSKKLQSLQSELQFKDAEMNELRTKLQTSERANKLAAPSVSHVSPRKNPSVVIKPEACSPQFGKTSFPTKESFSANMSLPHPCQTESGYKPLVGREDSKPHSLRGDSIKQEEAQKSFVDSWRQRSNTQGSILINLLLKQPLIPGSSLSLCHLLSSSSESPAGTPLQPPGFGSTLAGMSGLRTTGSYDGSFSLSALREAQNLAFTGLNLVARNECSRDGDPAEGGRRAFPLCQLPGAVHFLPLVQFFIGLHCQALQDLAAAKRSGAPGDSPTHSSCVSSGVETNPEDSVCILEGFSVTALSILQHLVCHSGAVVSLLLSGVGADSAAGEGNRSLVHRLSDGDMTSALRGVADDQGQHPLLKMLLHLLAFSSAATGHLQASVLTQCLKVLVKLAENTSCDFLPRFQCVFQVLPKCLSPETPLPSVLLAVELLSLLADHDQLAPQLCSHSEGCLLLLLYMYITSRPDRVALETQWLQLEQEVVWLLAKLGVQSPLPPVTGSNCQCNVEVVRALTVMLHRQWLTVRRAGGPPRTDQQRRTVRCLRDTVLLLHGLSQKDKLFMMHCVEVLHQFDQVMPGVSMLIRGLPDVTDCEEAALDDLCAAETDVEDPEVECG
Procedure: as §3

[1] = test system: RSK1 domain1, RSK2 domain1, RSK3 domain1; assay: KiNativ assay; type: binding; settings: H929 live cell
Procedure: as §3

MST1, MST2 = assay: KiNativ assay; type: binding; settings: H929 live cell
Procedure: as §3

MPSK1 = MPSK1 (Homo sapiens (Human), UniProt O75716); assay: KiNativ assay; type: binding; settings: H929 live cell
Procedure: as §3

PEK = PEK (Homo sapiens (Human), UniProt Q9NZJ5); assay: KiNativ assay; type: binding; settings: H929 live cell
Procedure: as §3

MARK2 = MARK2 (Homo sapiens (Human), UniProt Q7KZI7); assay: KiNativ assay; type: binding; settings: H929 live cell
Procedure: as §3

CHK2 = CHK2 (Homo sapiens (Human), UniProt O96017); assay: KiNativ assay; type: binding; settings: H929 live cell
Procedure: as §3

PRP4 = PRP4 (Homo sapiens (Human), UniProt Q13523); assay: KiNativ assay; type: binding; settings: H929 live cell
Procedure: as §3

SMG1 = SMG1 (Homo sapiens (Human), UniProt Q96Q15); assay: KiNativ assay; type: binding; settings: H929 live cell
Procedure: as §3

MARK1, MARK2 = assay: KiNativ assay; type: binding; settings: H929 live cell
Procedure: as §3

MAPKAPK2, MAPKAPK3 = assay: KiNativ assay; type: binding; settings: H929 live cell
Procedure: as §3

MAP2K7 = MAP2K7 (Homo sapiens (Human), UniProt O14733); assay: KiNativ assay; type: binding; settings: H929 live cell
Procedure: as §3

MSK1 domain1 = MSK1 domain1 (Homo sapiens (Human), UniProt O75582); assay: KiNativ assay; type: binding; settings: H929 live cell
Procedure: as §3

[2] = range class, read-out: % inhibition

Nc1ncc(-c2ccc(NS(=O)(=O)C3CC3)cc2F)cc1-c1ccc2c(c1)CCNC2=O [Compound I-51, N-(4-(6-amino-5-(1-oxo-1,2,3,4-tetrahydroisoquinolin-6-yl)pyridin-3-yl)-3-fluorophenyl) cyclopropanesulfonamide]
IC50 (STK24 (MST3)): 40 to 200 nM | IC50 (STK4 (MST1)): < 40 nM | inhibition at 10 µM (MARK3; [2]): 0% | inhibition at 10 µM (MARK3; read-out: inhibition (10 μM)): 4.8% | inhibition at 10 µM (NEK9; [2]): 0% | inhibition at 10 µM (NEK9; read-out: inhibition (10 μM)): -20.8% | inhibition at 10 µM (Erk1; [2]): 0% | inhibition at 10 µM (Erk1; read-out: inhibition (10 μM)): 29.2% | inhibition at 10 µM (HPK1; [2]): 75 to 90% | inhibition at 10 µM (HPK1; read-out: inhibition (10 μM)): 83.5% | inhibition at 10 µM (MAP2K3; [2]): 0% | inhibition at 10 µM (MAP2K3; read-out: inhibition (10 μM)): 0.9% | inhibition at 10 µM (ATR; [2]): 0% | inhibition at 10 µM (ATR; read-out: inhibition (10 μM)): 15% | % inhibition ([1]; 10 μM, range class): 0.0% | inhibition (10 μM) [1]: 25.8% | % inhibition (MST1, MST2; 10 μM, range class): >90% | inhibition (10 μM) (MST1, MST2): 98.4% | inhibition at 10 µM (MPSK1; [2]): 35 to 40% | inhibition at 10 µM (MPSK1; read-out: inhibition (10 μM)): 43.9% | inhibition at 10 µM (PEK; [2]): 0% | inhibition at 10 µM (PEK; read-out: inhibition (10 μM)): -16.3% | inhibition at 10 µM (MARK2; [2]): 0% | inhibition at 10 µM (MARK2; read-out: inhibition (10 μM)): 24.6% | inhibition at 10 µM (CHK2; [2]): 0% | inhibition at 10 µM (CHK2; read-out: inhibition (10 μM)): 14.1% | inhibition at 10 µM (PRP4; [2]): 0% | inhibition at 10 µM (PRP4; read-out: inhibition (10 μM)): 10.2% | inhibition at 10 µM (SMG1; [2]): 50 to 75% | inhibition at 10 µM (SMG1; read-out: inhibition (10 μM)): 55.8% | % inhibition (MARK1, MARK2; 10 μM, range class): 0.0% | inhibition (10 μM) (MARK1, MARK2): 9.3% | % inhibition (MAPKAPK2, MAPKAPK3; 10 μM, range class): 0.0% | inhibition (10 μM) (MAPKAPK2, MAPKAPK3): −65.2% | inhibition at 10 µM (MAP2K7; [2]): 0% | inhibition at 10 µM (MAP2K7; read-out: inhibition (10 μM)): 12.2% | inhibition at 10 µM (MSK1 domain1; [2]): 0% | inhibition at 10 µM (MSK1 domain1; read-out: inhibition (10 μM)): 11.4%

CN(C1CC1)S(=O)(=O)c1ccc(-c2cnc(N)c(-c3ccc4c(c3)CCNC4=O)c2)c(F)c1 [Compound I-28, 4-(6-amino-5-(1-oxo-1,2,3,4-tetrahydroisoquinolin-6-yl)pyridin-3-yl)-N-cyclopropyl-3-fluoro-N-methylbenzenesulfonamide]
IC50 (STK24 (MST3)): 40 to 200 nM | IC50 (STK4 (MST1)): < 40 nM | inhibition at 10 µM (MARK3; read-out: % inhibition (range)): 0% | inhibition at 10 µM (MARK3; read-out: inhibition (10 μM)): 14.5% | inhibition at 10 µM (NEK9; read-out: % inhibition (range)): 0% | inhibition at 10 µM (NEK9; read-out: inhibition (10 μM)): -4.7% | inhibition at 10 µM (Erk1; read-out: % inhibition (range)): 0% | inhibition at 10 µM (Erk1; read-out: inhibition (10 μM)): 11% | inhibition at 10 µM (HPK1; read-out: % inhibition (range)): > 90% | inhibition at 10 µM (HPK1; read-out: inhibition (10 μM)): 90.8% | inhibition at 10 µM (MAP2K3; read-out: % inhibition (range)): 0% | inhibition at 10 µM (MAP2K3; read-out: inhibition (10 μM)): 1.4% | inhibition at 10 µM (ATR; read-out: % inhibition (range)): 0% | inhibition at 10 µM (ATR; read-out: inhibition (10 μM)): -37.5% | % inhibition (range) ([1]; 10 μM): 0.0% | inhibition (10 μM) [1]: 13.3% | % inhibition (range) (MST1, MST2; 10 μM): >90% | inhibition (10 μM) (MST1, MST2): 97.5% | inhibition at 10 µM (MPSK1; read-out: % inhibition (range)): 0% | inhibition at 10 µM (MPSK1; read-out: inhibition (10 μM)): -9.1% | inhibition at 10 µM (PEK; read-out: % inhibition (range)): 0% | inhibition at 10 µM (PEK; read-out: inhibition (10 μM)): -15.7% | inhibition at 10 µM (MARK2; read-out: % inhibition (range)): 0% | inhibition at 10 µM (MARK2; read-out: inhibition (10 μM)): 4.6% | inhibition at 10 µM (CHK2; read-out: % inhibition (range)): 0% | inhibition at 10 µM (CHK2; read-out: inhibition (10 μM)): 6.8% | inhibition at 10 µM (PRP4; read-out: % inhibition (range)): 0% | inhibition at 10 µM (PRP4; read-out: inhibition (10 μM)): 3.7% | inhibition at 10 µM (SMG1; read-out: % inhibition (range)): 35 to 50% | inhibition at 10 µM (SMG1; read-out: inhibition (10 μM)): 42.9% | % inhibition (range) (MARK1, MARK2; 10 μM): 0.0% | inhibition (10 μM) (MARK1, MARK2): −1.3% | % inhibition (range) (MAPKAPK2, MAPKAPK3; 10 μM): 0.0% | inhibition (10 μM) (MAPKAPK2, MAPKAPK3): −5.0% | inhibition at 10 µM (MAP2K7; read-out: % inhibition (range)): 0% | inhibition at 10 µM (MAP2K7; read-out: inhibition (10 μM)): -0.5% | inhibition at 10 µM (MSK1 domain1; read-out: % inhibition (range)): 0% | inhibition at 10 µM (MSK1 domain1; read-out: inhibition (10 μM)): 5.4%

Nc1ncc(-c2cccc([N+](=O)[O-])c2F)cc1-c1ccc2c(c1)CCNC2=O [Compound I-9, 6-(2-amino-5-(2-fluoro-3-nitrophenyl)pyridin-3-yl)-3,4-dihydroisoquinolin-1(2H)-one]
IC50 (STK24 (MST3)): > 900 nM | IC50 (STK4 (MST1)): < 40 nM | inhibition at 10 µM (MARK3; read-out: % inhibition (range)): 75 to 90% | inhibition at 10 µM (MARK3; read-out: inhibition (10 μM)): 78.3% | inhibition at 10 µM (NEK9; read-out: % inhibition (range)): 0% | inhibition at 10 µM (NEK9; read-out: inhibition (10 μM)): -38.3% | inhibition at 10 µM (Erk1; read-out: % inhibition (range)): 50 to 75% | inhibition at 10 µM (Erk1; read-out: inhibition (10 μM)): 50.5% | inhibition at 10 µM (HPK1; read-out: % inhibition (range)): > 90% | inhibition at 10 µM (HPK1; read-out: inhibition (10 μM)): 97.5% | inhibition at 10 µM (MAP2K3; read-out: % inhibition (range)): 0% | inhibition at 10 µM (MAP2K3; read-out: inhibition (10 μM)): -34.2% | inhibition at 10 µM (ATR; read-out: inhibition (10 μM)): 37.5% | % inhibition (range) ([1]; 10 μM): 50-75% | inhibition (10 μM) [1]: 58.7% | % inhibition (range) (MST1, MST2; 10 μM): >90% | inhibition (10 μM) (MST1, MST2): 99.0% | inhibition at 10 µM (MPSK1; read-out: inhibition (10 μM)): 55.2% | inhibition at 10 µM (PEK; read-out: % inhibition (range)): > 100% | inhibition at 10 µM (PEK; read-out: inhibition (10 μM)): -100% | inhibition at 10 µM (MARK2; read-out: % inhibition (range)): 50 to 75% | inhibition at 10 µM (MARK2; read-out: inhibition (10 μM)): 63.5% | inhibition at 10 µM (CHK2; read-out: % inhibition (range)): 75 to 90% | inhibition at 10 µM (CHK2; read-out: inhibition (10 μM)): 80.9% | inhibition at 10 µM (PRP4; read-out: % inhibition (range)): 50 to 75% | inhibition at 10 µM (PRP4; read-out: inhibition (10 μM)): 70.2% | inhibition at 10 µM (SMG1; read-out: % inhibition (range)): > 90% | inhibition at 10 µM (SMG1; read-out: inhibition (10 μM)): 94.7% | % inhibition (range) (MARK1, MARK2; 10 μM): 35-50% | inhibition (10 μM) (MARK1, MARK2): 40.7% | % inhibition (range) (MAPKAPK2, MAPKAPK3; 10 μM): 0.0% | inhibition (10 μM) (MAPKAPK2, MAPKAPK3): 4.0% | inhibition at 10 µM (MAP2K7; read-out: % inhibition (range)): 0% | inhibition at 10 µM (MAP2K7; read-out: inhibition (10 μM)): 14.6% | inhibition at 10 µM (MSK1 domain1; read-out: % inhibition (range)): 0% | inhibition at 10 µM (MSK1 domain1; read-out: inhibition (10 μM)): 2%

Nc1ncc(-c2cc([N+](=O)[O-])ccc2F)cc1-c1ccc2c(c1)CCNC2=O [Compound I-1, 6-(2-amino-5-(2-fluoro-5-nitrophenyl)pyridin-3-yl)-3,4-dihydroisoquinolin-1(2H)-one]
IC50 (STK24 (MST3)): > 900 nM | IC50 (STK4 (MST1)): < 40 nM
